Test results taken from US20060153933A1 (priority 2002, published 2006).
Like-named read-outs stand apart in the source and are kept apart here.

What was measured:
[1] = tested on: Phytophthora infestans (PHYTIN); assay: whole plant or invertebrate; assay type: in vivo; details: for pest or weed control at 1.85 ppm: read-out: % Disease Control (observed)
[2] = tested on: Plasmopara viticola (PLASVI); assay: whole plant or invertebrate; assay type: in vivo; details: for pest or weed control at 0.62 ppm: 0.62 ppm alone
[3] = Plasmopara viticola, 48 h, read-out: % Disease Control (observed), 2DP
[4] = Plasmopara viticola, 48 h, read-out: % Disease Control (observed), 2DP, 1.85 ppm alone
[5] = Phytophthora infestans, 24 h, read-out: % Disease Control (observed), 1DP, 0.62 ppm alone
[6] = Phytophthora infestans, 24 h, read-out: % Disease Control (observed), 1DP, 5.56 ppm alone
[7] = PHYTIN 2DP, applied alone at 5.56 ppm
[8] = PLASVI 2DP, applied alone at 5.56 ppm

Compound: CC[C@H](CS(=O)(=O)[C@@H](C)c1ccc(C#N)cc1)NC(=O)Oc1ccc(F)cc1 [Formula IIIa, 4-fluorophenyl(1S)-1-({[(1S)-1-(4-cyanophenyl)ethyl]sulfonyl}methyl) propylcarbamate]
- % Disease Control (Observed) ([1]; 4DP, 0.3 ppm alone): 19.3%
- % Disease Control (Observed) ([1]; 4DP, 0.60 ppm alone): 10.50%
- % Disease Control (Observed) ([1]; 4DP, 0.9 ppm alone): 73.7%
- % Disease Control (Observed) ([1]; 4DP, 1.9 ppm alone): 78.9%
- % Disease Control (Observed) ([1]; 4DP, 1.90 ppm alone): 78.90%
- % Disease Control (Observed) ([2]; 4DP, 1.9 ppm alone): 14.0%
- % Disease Control (Observed) ([2]; 4DP, 1.90 ppm alone): 14.00%
- % Disease Control (Observed) ([2]; 4DP, 2.8 ppm alone): 76.3%

Compound: Cc1ccc(-c2c(Cl)nc(C#N)n2S(=O)(=O)N(C)C)cc1 [Cyazofamid, cyazofamid]
- pest or weed control at 0.62 ppm ([1]; Phytophthora infestans, 72 h, read-out: % Disease Control (observed), 3DP, 0.62 ppm alone): 82.5%
- pest or weed control at 0.62 ppm ([2]; Plasmopara viticola, 72 h, read-out: % Disease Control (observed), 3DP): 7%

Compound: CCCOC(=O)NCCCN(C)C [Propamocarb, propamocarb]
- pest or weed control at 1.85 ppm ([1]; Phytophthora infestans, 48 h): 1.8%
- pest or weed control at 0.62 ppm ([1]; Phytophthora infestans, 48 h, read-out: % Disease Control (observed), 2DP, 0.62 ppm alone): 0%
- pest or weed control at 5.56 ppm ([2]; Plasmopara viticola, 48 h, read-out: % Disease Control (observed), 2DP, 5.56 ppm alone): 0%

Compound: CON=C(C(=O)OC)c1ccccc1CON=C(C)c1cccc(C(F)(F)F)c1 [Trifloxystrobin, trifloxystrobin]
- pest or weed control at 1.85 ppm ([1]; Phytophthora infestans, 48 h): 24.6%
- pest or weed control at 0.62 ppm [2, 3]: 1.8%
- pest or weed control at 1.85 ppm [2, 4]: 21.1%

Compound: C[C@@]1(c2ccc(Oc3ccccc3)cc2)OC(=O)N(Nc2ccccc2)C1=O (racemic) [Famoxadone, famoxadone]
- pest or weed control at 1.85 ppm ([1]; Phytophthora infestans, 48 h): 47.4%
- pest or weed control at 1.85 ppm [2, 4]: 31.6%

Compound: CCC(C)(NC(=O)c1cc(Cl)c(C)c(Cl)c1)C(=O)CCl (centres unmarked) [Zoxamide, zoxamide]
- % Disease Control (Observed) ([1]; 4DP, 1.90 ppm alone): 55.30%
- % Disease Control (Observed) ([1]; 4DP, 11.20 ppm alone): 19.30%
- % Disease Control (Observed) ([1]; 4DP, 16.70 ppm alone): 34.90%
- % Disease Control (Observed) ([1]; PHYTIN 2DP, applied alone at 0.4 ppm): 1.8%
- % Disease Control (Observed) ([1]; PHYTIN 2DP, applied alone at 1.1 ppm): 14%
- % Disease Control (Observed) ([1]; PHYTIN 3DP, applied alone at 1.1 ppm): 10.5%
- % Disease Control (Observed) ([1]; PHYTIN 6DP, applied alone at 1.1 ppm): 7%
- % Disease Control (Observed) ([1]; PHYTIN 6DP, applied alone at 3.3 ppm): 40.4%
- % Disease Control (Observed) ([2]; 4DP, 1.90 ppm alone): 5.30%
- % Disease Control (Observed) ([2]; 4DP, 5.60 ppm alone): 57.90%
- % Disease Control (Observed) ([2]; PLASVI 2DP, applied alone at 0.4 ppm): 3.5%
- % Disease Control (Observed) ([2]; PLASVI 2DP, applied alone at 1.1 ppm): 21.1%
- % Disease Control (Observed) ([2]; PLASVI 2DP, applied alone at 3.3 ppm): 36.8%
- % Disease Control (Observed) ([2]; PLASVI 3DP, applied alone at 0.4 ppm): 3.5%
- % Disease Control (Observed) ([2]; PLASVI 3DP, applied alone at 1.1 ppm): 17.5%
- % Disease Control (Observed) ([2]; PLASVI 6DP, applied alone at 3.3 ppm): 10.5%

Compound: Maneb
- % Disease Control (Observed) ([1]; PHYTIN 3DP, applied alone at 5.56 ppm): 14.0%
- % Disease Control (Observed) ([1]; in vivo): 3.5%
- % Disease Control (Observed) ([2]; PLASVI 3DP, applied alone at 16.70 ppm): 24.6%

Compound: COCC(=O)N(c1c(C)cccc1C)N1CCOC1=O [Oxadixyl, oxadixyl]
- pest or weed control at 0.62 ppm [1, 5]: 0%
- pest or weed control at 1.9 ppm ([1]; Phytophthora infestans, 24 h, read-out: % Disease Control (observed), 1DP, 1.90 ppm alone): 24.6%
- pest or weed control at 0.2 ppm ([2]; Plasmopara viticola, 24 h, read-out: % Disease Control (observed), 1DP, 0.20 ppm alone (Formula III 0.00 ppm)): 19.3%

Compound: [Cu+2].[OH-].[OH-] [Cu(OH)2, copper hydroxide]
- % Disease Control (Observed) ([1]; 3DP, 5.56 ppm alone): 14.0%
- % Disease Control (Observed) ([2]; 3DP, 16.70 ppm alone): 10.5%

Compound: CO/C=C(/C(=O)OC)c1ccccc1COc1cccc(C(F)(F)F)n1 [Picoxystrobin, picoxystrobin]
- % Disease Control (Observed) ([1]; 3DP, 5.56 ppm alone): 59.6%
- % Disease Control (Observed) ([2]; 3DP, 5.56 ppm alone): 61.4%

Compound: COCC(=O)N(c1c(C)cccc1C)C(C)C(=O)OC (centres unmarked) [Metalaxyl, metalaxyl]
- pest or weed control at 5.56 ppm [1, 6]: 0%
- pest or weed control at 1.9 ppm ([2]; Plasmopara viticola, 72 h, read-out: % Disease Control (observed), 3DP, 1.90 ppm alone): 15.8%
- pest or weed control at 5.6 ppm ([2]; Plasmopara viticola, 72 h, read-out: % Disease Control (observed), 3DP, 5.60 ppm alone): 21.1%

Compound: COC(=O)CC(NC(=O)[C@@H](NC(=O)OC(C)C)C(C)C)c1ccc(Cl)cc1 (mixture of isomers) [Compound 1, methyl (±)RS-[3-(N-isopropoxycarbonyl-S-valinyl)amino]-3-(4-chlorophenyl)propanoate]
- % Disease Control (Observed) ([1]; 2DP, 0.62 ppm alone): 7.0%
- % Disease Control (Observed) ([1]; in vivo): 40.4%
- % Disease Control (Observed) ([2]; 2DP, 1.85 ppm alone): 5.3%

Compound: Metiram
- % Disease Control (Observed) [1, 7]: 0.0%
- % Disease Control (Observed) ([2]; PLASVI 2DP, applied alone at 1.85 ppm): 5.3%
- % Disease Control (Observed) [2, 8]: 8.8%

Compound: O=C1C2CC=CCC2C(=O)N1SC(Cl)(Cl)Cl (centres unmarked) [Captan, captan]
- pest or weed control at 5.56 ppm [1, 6]: 0%

Compound: O=C1c2ccccc2C(=O)N1SC(Cl)(Cl)Cl [Folpet, folpet]
- % Disease Control (Observed) ([1]; PHYTIN 2DP, applied alone at 4.3 ppm): 1.8%
- % Disease Control (Observed) ([1]; PHYTIN 2DP, applied alone at 12.8 ppm): 5.3%
- pest or weed control at 0.62 ppm [1, 5]: 0%
- % Disease Control (Observed) ([2]; PLASVI 2DP, applied alone at 4.3 ppm): 1.8%
- % Disease Control (Observed) ([2]; PLASVI 2DP, applied alone at 12.8 ppm): 22.8%
- pest or weed control at 5.56 ppm ([2]; Plasmopara viticola, 24 h, read-out: % Disease Control (observed), 1DP, 5.56 ppm alone): 0%

Compound: O=[N+]([O-])c1cc(C(F)(F)F)c(Cl)c([N+](=O)[O-])c1Nc1ncc(C(F)(F)F)cc1Cl [Fluazinam, fluazinam]
- pest or weed control at 1.85 ppm ([1]; Phytophthora infestans, 72 h): 12.3%
- pest or weed control at 5.56 ppm ([1]; Phytophthora infestans, 72 h, read-out: % Disease Control (observed), 3DP, 5.56 ppm alone): 50.9%
- pest or weed control at 1.85 ppm [2, 4]: 14%

Compound: CO/C=C(/C(=O)OC)c1ccccc1Oc1cc(Oc2ccccc2C#N)ncn1 [Azoxystrobin, azoxystrobin]
- % Disease Control (Observed) ([1]; 3DP, 5.56 ppm alone): 33.3%
- % Disease Control (Observed) ([2]; 3DP, 1.85 ppm alone): 28.1%
- % Disease Control (Observed) ([2]; 3DP, 5.56 ppm alone): 59.6%

Compound: [Cl-].[Cu+2].[Cu+2].[OH-].[OH-].[OH-] [Cu oxychloride, copper oxychloride]
- % Disease Control (Observed) ([1]; 3DP, 5.56 ppm alone): 17.5%
- % Disease Control (Observed) ([1]; 3DP, 16.70 ppm alone): 24.6%
- % Disease Control (Observed) ([1]; PHYTIN 6DP, applied alone at 12.8 ppm): 0%
- % Disease Control (Observed) ([1]; PHYTIN 6DP, applied alone at 38.3 ppm): 22.8%
- % Disease Control (Observed) ([1]; Table 10, PHYTIN (3DP) as printed, 16.70 ppm alone): 7.0%
- % Disease Control (Observed) ([2]; PLASVI 6DP, applied alone at 38.3 ppm): 3.5%

Compound: CCO[PH](=O)O [Fosetyl-Al, fosetyl-Al]
- % Disease Control (Observed) ([1]; PHYTIN 6DP, applied alone at 11.1 ppm): 0%
- % Disease Control (Observed) ([1]; PHYTIN 6DP, applied alone at 33.3 ppm): 0%
- % Disease Control (Observed) ([1]; in vivo): 0.0%
- % Disease Control (Observed) ([2]; 7DP, 1.85 ppm alone): 8.8%
- % Disease Control (Observed) ([2]; 7DP, 5.56 ppm alone): 10.5%
- % Disease Control (Observed) ([2]; 7DP, 16.70 ppm alone): 12.3%
- % Disease Control (Observed) ([2]; PLASVI 6DP, applied alone at 33.3 ppm): 0%

Compound: mancozeb
- % Disease Control (Observed) ([1]; 4DP, 0.60 ppm alone): 5.3%
- % Disease Control (Observed) ([1]; 4DP, 1.9 ppm alone): 8.8%
- % Disease Control (Observed) ([1]; 4DP, 5.6 ppm alone): 26.3%
- % Disease Control (Observed) ([1]; 4DP, 16.70 ppm alone): 40.4%
- % Disease Control (Observed) ([1]; PHYTIN 3DP, applied alone at 8.9 ppm): 5.3%
- % Disease Control (Observed) ([2]; 1DP, 2.7 ppm alone): 14%
- % Disease Control (Observed) ([2]; 1DP, 8.0 ppm alone): 33.3%
- % Disease Control (Observed) ([2]; 4DP, 1.9 ppm alone): 0%
- % Disease Control (Observed) ([2]; 4DP, 16.7 ppm alone): 12.3%
- % Disease Control (Observed) ([2]; PLASVI 3DP, applied alone at 8.9 ppm): 17.5%

Compound: CCNc1nc(CC)c(C(=O)NC(C#N)c2cccs2)s1 (centres unmarked) [Ethaboxam, ethaboxam]
- % Disease Control (Observed) ([1]; 2DP, 0.62 ppm alone): 10.5%
- % Disease Control (Observed) ([2]; 2DP, 1.85 ppm alone): 50.9%
- % Disease Control (Observed) ([2]; 2DP, 5.56 ppm alone): 78.9%

Compound: N#Cc1c(Cl)c(Cl)c(Cl)c(C#N)c1Cl [Chlorothalonil, chlorothalonil]
- pest or weed control at 5.56 ppm [1, 6]: 0%
- pest or weed control at 1.85 ppm ([2]; Plasmopara viticola, 24 h, read-out: % Disease Control (observed), 1DP, 1.85 ppm alone): 0%

Compound: Propineb
- % Disease Control (Observed) [1, 7]: 0.0%
- % Disease Control (Observed) [2, 8]: 0.0%

Compound: COC(=O)N(OC)c1ccccc1COc1ccn(-c2ccc(Cl)cc2)n1 [Pyraclostrobin, pyraclostrobin]
- pest or weed control at 1.85 ppm ([1]; Phytophthora infestans, 48 h): 78.9%
- pest or weed control at 5.56 ppm ([1]; Phytophthora infestans, 48 h, read-out: % Disease Control (observed), 2DP, 5.56 ppm alone): 89.5%
- pest or weed control at 1.85 ppm ([2]; Plasmopara viticola, 24 h, read-out: % Disease Control (observed), 1DP, Table 14, 1.85 ppm alone): 0%
- pest or weed control at 5.56 ppm ([2]; Plasmopara viticola, 24 h, read-out: % Disease Control (observed), 1DP, Table 14, 5.56 ppm alone): 0%
- pest or weed control at 0.62 ppm [2, 3]: 61.4%
